Measurements reported in the supplement of paper PMC10307832.

Assays:
Assay in all cases: relative viability (nuclei count vs DMSO), 5 days (fraction); higher = more cells survive
Pemetrexed + AZD7762 = compound: Nc1nc2[nH]cc(CCc3ccc(C(=O)N[C@@H](CCC(=O)O)C(=O)O)cc3)c2c(=O)[nH]1 [Pemetrexed] + NC(=O)Nc1cc(-c2cccc(F)c2)sc1C(=O)N[C@H]1CCCNC1 [AZD7762] (partner 0.2 µM)
How it was run: (§1)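 Relative viability equals treated-well nuclei counts divided by vehicle-well nuclei counts. Counts came from 4× images of lung cancer cell lines grown in 1536-well plates for 5 days after pin-tool dosing on the day after seeding. Dosing used one drug alone or a fixed anchor-drug dose plus five library-drug doses (not always all listed) in √10 steps, and values are medians of duplicate plates.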

Idelalisib + Linsitinib = compound: CC[C@H](Nc1ncnc2[nH]cnc12)c1nc2cccc(F)c2c(=O)n1-c1ccccc1 [Idelalisib] + C[C@]1(O)C[C@@H](c2nc(-c3ccc4ccc(-c5ccccc5)nc4c3)c3c(N)nccn32)C1 [Linsitinib] (partner 1 µM)
How it was run: as §1

Idelalisib + Pictilisib = compound: CC[C@H](Nc1ncnc2[nH]cnc12)c1nc2cccc(F)c2c(=O)n1-c1ccccc1 [Idelalisib] + CS(=O)(=O)N1CCN(Cc2cc3nc(-c4cccc5[nH]ncc45)nc(N4CCOCC4)c3s2)CC1 [Pictilisib] (partner 1 µM)
How it was run: as §1

Idelalisib + Bortezomib = compound: CC[C@H](Nc1ncnc2[nH]cnc12)c1nc2cccc(F)c2c(=O)n1-c1ccccc1 [Idelalisib] + CC(C)C[C@H](NC(=O)[C@H](Cc1ccccc1)NC(=O)c1cnccn1)B(O)O [Bortezomib] (partner 0.002 µM)
How it was run: as §1

| Cell Line | relative viability (Pemetrexed + AZD7762; first compound 0.002 µM) | relative viability (Pemetrexed + AZD7762; first compound 0.006325 µM) | relative viability (Pemetrexed + AZD7762; first compound 0.02 µM) | relative viability (Pemetrexed + AZD7762; first compound 0.06325 µM) | relative viability (Pemetrexed + AZD7762; first compound 0.2 µM) | relative viability (Idelalisib + Linsitinib; first compound 0.04 µM) | relative viability (Idelalisib + Linsitinib; first compound 0.1265 µM) | relative viability (Idelalisib + Linsitinib; first compound 0.4 µM) | relative viability (Idelalisib + Linsitinib; first compound 1.265 µM) | relative viability (Idelalisib + Linsitinib; first compound 4 µM) | relative viability (Idelalisib + Pictilisib; first compound 0.04 µM) | relative viability (Idelalisib + Pictilisib; first compound 0.1265 µM) | relative viability (Idelalisib + Pictilisib; first compound 0.4 µM) | relative viability (Idelalisib + Pictilisib; first compound 1.265 µM) | relative viability (Idelalisib + Pictilisib; first compound 4 µM) | relative viability (Idelalisib + Bortezomib; first compound 0.04 µM) | relative viability (Idelalisib + Bortezomib; first compound 0.1265 µM) | relative viability (Idelalisib + Bortezomib; first compound 0.4 µM) | relative viability (Idelalisib + Bortezomib; first compound 1.265 µM) | relative viability (Idelalisib + Bortezomib; first compound 4 µM) |
| --- | --- | --- | --- | --- | --- | --- | --- | --- | --- | --- | --- | --- | --- | --- | --- | --- | --- | --- | --- | --- |
| SW 900 | 0.692 | 0.599 | 0.609 | 0.497 | 0.376 |  |  |  |  |  |  |  |  |  |  |  |  |  |  |  |
| PC-3 [JPC-3] | 0.448 | 0.968 | 1 | 0.808 | 0.861 | 0.972 | 0.976 | 0.986 | 0.95 | 0.893 | 0.895 | 0.749 | 0.73 | 0.737 | 0.601 | 0.885 | 0.837 | 0.835 | 0.806 | 0.809 |
| NCI-H1703 | 0.127 | 0.133 | 0.127 | 0.12 | 0.146 | 1.31 | 0.976 | 0.669 | 1.2 | 0.474 | 0.229 | 0.237 | 0.23 | 0.247 | 0.197 | 0.305 | 0.404 | 0.246 | 0.332 | 0.161 |
| EPLC-272H | 0.117 | 0.206 | 0.259 | 0.176 | 0.169 | 1.49 | 0.996 | 0.977 | 1.13 | 0.976 | 0.299 | 0.313 | 0.236 | 0.402 | 0.316 | 0.904 | 0.858 | 1.05 | 0.935 | 0.851 |
| NCI-H1792 | 0.608 | 0.633 | 0.697 | 0.676 | 0.633 | 0.242 | 0.498 | 0.508 | 0.443 | 0.461 | 0.279 | 0.251 | 0.268 | 0.275 | 0.249 | 0.552 | 0.952 | 0.844 | 0.968 | 0.843 |
| NCI-H2085 | 0.921 | 0.936 | 1.04 | 0.959 | 0.916 | 0.912 | 1.03 | 0.8 | 0.579 | 0.437 | 0.531 | 0.452 | 0.38 | 0.451 | 0.413 | 0.916 | 1.08 | 0.983 | 1.06 | 0.848 |
| LK-2 | 0.504 | 0.426 | 0.494 | 0.245 | 0.164 | 0.531 | 0.418 | 0.5 | 0.518 | 0.419 | 0.545 | 0.431 |  | 0.534 | 0.586 |  |  |  |  |  |
| NCI-H1395 | 0.387 | 0.373 | 0.421 | 0.415 | 0.38 | 1.15 | 1.22 | 0.92 | 0.82 | 0.77 | 0.714 | 0.525 | 0.564 | 0.613 | 0.557 |  |  |  |  |  |
| ABC-1 | 0.907 | 0.847 | 0.856 | 0.732 | 0.726 | 0.765 | 0.698 | 0.827 | 0.651 | 0.689 | 0.726 | 0.771 | 0.566 | 0.813 | 0.723 | 0.327 | 0.243 | 0.309 | 0.326 | 0.288 |
| RERF-LC-KJ | 0.837 | 1.49 | 0.919 | 1.04 | 0.618 | 0.973 | 0.863 | 0.869 | 0.789 | 0.908 | 0.493 | 0.521 | 0.581 | 0.516 | 0.53 | 1.2 | 1.08 | 0.95 | 1.13 | 0.878 |
| LU99A | 0.356 | 0.376 | 0.371 | 0.293 | 0.178 | 0.473 | 0.528 | 0.489 | 0.43 | 0.446 | 0.324 | 0.339 | 0.263 | 0.385 | 0.279 | 1.29 | 1.13 | 1.1 | 1.33 | 1.11 |
| NCI-H650 | 0.966 | 0.939 |  | 0.83 | 0.931 | 0.934 | 0.981 | 0.789 | 0.798 | 0.775 | 0.849 | 0.858 | 0.907 | 0.819 | 0.783 | 0.693 | 0.998 | 0.735 | 1.13 | 0.662 |
| NCI-H2347 | 0.61 | 0.831 | 0.914 | 0.517 | 0.428 | 0.931 | 0.884 | 0.857 | 1.14 | 0.514 | 0.398 | 0.69 | 0.487 | 0.623 | 0.756 | 0.971 | 0.982 | 0.971 | 0.774 | 0.799 |
| HARA | 0.272 | 0.302 | 0.582 | 0.259 | 0.128 | 1.21 | 0.911 | 0.869 | 0.887 | 0.936 | 0.376 | 0.409 | 0.287 | 0.403 | 0.266 | 1.27 | 1.02 | 1.08 | 1.2 | 1.1 |
| NCI-H2228 |  |  |  |  |  | 0.66 | 0.68 | 0.586 | 0.768 | 0.511 | 0.383 | 0.367 | 0.355 | 0.396 | 0.421 | 1.07 | 0.983 | 1.09 | 1.05 | 1.03 |
| EKVX | 0.589 | 0.645 | 0.636 | 0.549 | 0.654 | 0.832 | 0.97 | 0.849 | 0.724 | 0.758 | 0.498 | 0.456 | 0.384 | 0.356 | 0.447 | 1.1 | 0.986 | 1.01 | 0.87 | 0.808 |
| HCC-827 | 0.192 | 0.276 | 0.26 | 0.183 | 0.164 | 0.958 | 0.961 | 0.96 | 0.885 | 0.965 | 0.995 | 1.06 | 1.05 | 1.09 | 0.843 | 1.1 | 0.99 | 1.03 | 1.17 | 1.07 |
